The source of these data is patent publication US10946017B2, “Tank-binding kinase-1 PROTACs and associated methods of use” (Arvinas Operations, Inc., priority 2015, dated 2021).

Assay [1] deals with Von Hippel-Lindau (VHL) E3 ligase (Homo sapiens (Human), UniProt P40337). Nature of the assay: VHL binding, FP assay. Particulars: affinity of the VHL ligand component with side chain R2.
Assay [2] addresses T1, TBK1 (Homo sapiens (Human), UniProt Q9UHD2). The experiment in a line: In vitro TBK1 degradation assay, Panc02.13 cells (compounds 3-33), immunoblot. It is filed as cell-based. Particulars: for DC50: read-out: DC50 (concentration at which 50% degradation is observed). As for the experimental part: (§1) In vitro degradation assay protocol for compounds 3-33: Panc02.13 cells were purchased from ATCC and cultured in RPMI-1640 (Gibco), supplemented with 15% FBS (ATCC) and 10 Units/mL human recombinant insulin (Gibco). PROTAC treatments were carried out in 12-well plates for 16 h. TLR3 agonist Poly I:C (Invivogen; tlr1-pic) was added for the final 3 h. Cells were harvested, and lysed in RIPA buffer (50 mM Tris pH8, 150 mM NaCl, 1% Tx-100, 0.1% SDS, 0.5% Sodium Deoxycholate) supplemented with protease and phosphatase inhibitors. Lysates were clarified at 16,000 g for 10 minutes, and supernatants were separated by SDS-PAGE. Immunoblotting was performed using standard protocols. The antibodies used were TBK1 (Cell Signaling#3504), pIRF3 (abcam#ab76493), and GAPDH (Cell Signaling#5174).
For orientation: A western blot detects proteins with antibodies after separation by electrophoresis.

Assay [3] addresses T1, TBK1. The experiment in a line: TBK1 binding affinity (Kd).
Assay [4] concerns the target T2, IKKε (Homo sapiens (Human), UniProt Q14164). Nature of the assay: IKKε degradation in cells. It is filed as cell-based.
In assay [5] the target is T1, TBK1. The experiment in a line: TBK1 degradation in KRAS mutant and wild type cell lines. In kind it is cell-based. Particulars: 72 hour treatment; H23, A549, H1792 (KRAS mutant), H2110 (KRAS wild type).
In a further assay the test system is pIRF3. The experiment in a line: Inhibition of TBK1 downstream marker pIRF3 in cells. In kind it is cell-based. As for the experimental part:
as §1

Assay [6] deals with KRAS mutant cell lines H23, A549 and H1792, and KRAS wild type cell line H2110. The experiment in a line: Proliferation of KRAS mutant and wild type cell lines. It is filed as cell-based. As to conditions: 72 hour treatment.
Assay [7] has as its target T2, IKKε. Nature of the assay: IKKε binding affinity (Kd).
Where [8] appears, read: TBK1 degradation, Panc02.13 cells, 16 h, mean of ≥ 2 determinations.

Entries after “also recorded” stand apart in the source; their conditions may differ. Read-outs that look alike come from different tables or passages of the source.

Sequence of Von Hippel-Lindau (VHL) E3 ligase (P40337 whole entry, looked up): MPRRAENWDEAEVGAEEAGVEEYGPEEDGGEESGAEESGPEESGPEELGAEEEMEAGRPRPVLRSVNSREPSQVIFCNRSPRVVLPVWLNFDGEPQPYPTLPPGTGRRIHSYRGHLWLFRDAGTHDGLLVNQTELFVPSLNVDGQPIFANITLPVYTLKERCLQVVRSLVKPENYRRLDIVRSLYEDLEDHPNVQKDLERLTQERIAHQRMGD
Sequence of Von Hippel-Lindau (VHL) E3 ligase (Q15370 whole entry partner, looked up): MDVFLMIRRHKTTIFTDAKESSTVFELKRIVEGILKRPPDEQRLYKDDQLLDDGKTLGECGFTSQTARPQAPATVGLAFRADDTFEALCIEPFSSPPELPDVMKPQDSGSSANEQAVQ
Sequence of Von Hippel-Lindau (VHL) E3 ligase (Q15369 whole entry partner, looked up): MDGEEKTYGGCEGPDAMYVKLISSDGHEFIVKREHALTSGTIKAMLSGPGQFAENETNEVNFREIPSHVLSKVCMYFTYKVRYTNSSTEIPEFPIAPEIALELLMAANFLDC
T1 sequence (Q9UHD2 whole entry): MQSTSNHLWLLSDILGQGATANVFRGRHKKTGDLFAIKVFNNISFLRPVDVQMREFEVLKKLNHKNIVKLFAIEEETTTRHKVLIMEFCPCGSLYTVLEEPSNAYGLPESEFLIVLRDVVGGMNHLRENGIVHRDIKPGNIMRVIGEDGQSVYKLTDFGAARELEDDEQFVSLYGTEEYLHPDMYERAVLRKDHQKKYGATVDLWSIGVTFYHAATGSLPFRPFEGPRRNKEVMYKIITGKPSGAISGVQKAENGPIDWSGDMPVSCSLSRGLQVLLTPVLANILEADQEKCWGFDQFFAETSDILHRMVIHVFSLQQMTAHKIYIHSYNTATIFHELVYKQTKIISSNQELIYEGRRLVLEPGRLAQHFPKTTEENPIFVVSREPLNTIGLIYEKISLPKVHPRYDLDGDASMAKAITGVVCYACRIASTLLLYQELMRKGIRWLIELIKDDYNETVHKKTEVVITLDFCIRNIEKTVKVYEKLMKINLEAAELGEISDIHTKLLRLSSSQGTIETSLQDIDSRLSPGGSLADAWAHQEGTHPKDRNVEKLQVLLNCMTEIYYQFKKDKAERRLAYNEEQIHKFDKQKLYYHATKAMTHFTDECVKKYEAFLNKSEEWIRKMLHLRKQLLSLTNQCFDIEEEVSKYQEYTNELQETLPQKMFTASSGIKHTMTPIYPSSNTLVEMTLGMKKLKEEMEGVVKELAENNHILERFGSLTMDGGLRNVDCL
T2 sequence (Q14164 whole entry): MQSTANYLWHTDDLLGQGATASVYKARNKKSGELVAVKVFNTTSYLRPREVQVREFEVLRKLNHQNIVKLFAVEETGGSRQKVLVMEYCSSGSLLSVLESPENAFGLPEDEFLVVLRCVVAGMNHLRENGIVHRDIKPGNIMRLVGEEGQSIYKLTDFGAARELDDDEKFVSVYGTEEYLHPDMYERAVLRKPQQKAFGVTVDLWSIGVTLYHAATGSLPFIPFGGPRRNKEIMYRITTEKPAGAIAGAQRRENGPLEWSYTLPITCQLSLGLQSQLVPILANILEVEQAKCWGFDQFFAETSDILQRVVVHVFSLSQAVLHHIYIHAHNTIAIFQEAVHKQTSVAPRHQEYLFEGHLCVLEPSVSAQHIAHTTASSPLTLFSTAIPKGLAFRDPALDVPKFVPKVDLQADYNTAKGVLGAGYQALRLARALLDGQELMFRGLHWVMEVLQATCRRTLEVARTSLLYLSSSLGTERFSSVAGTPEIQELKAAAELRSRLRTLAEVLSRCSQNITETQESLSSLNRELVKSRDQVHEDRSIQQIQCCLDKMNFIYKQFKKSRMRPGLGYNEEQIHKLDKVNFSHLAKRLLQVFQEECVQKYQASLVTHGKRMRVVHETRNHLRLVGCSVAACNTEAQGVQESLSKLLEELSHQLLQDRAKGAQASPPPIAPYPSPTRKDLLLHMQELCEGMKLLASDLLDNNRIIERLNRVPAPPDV

In assay [1], `CC[C@H](NC(=O)COCCCOCCCCOCCCOc1ccc(Nc2ncc(Br)c(NCCCN(C)C(=O)C3CCC3)n2)cc1)C(=O)N1C[C@H](O)C[C@H]1C(=O)NCc1ccc(-c2scnc2C)cc1` [Compound 31] yielded an IC50 of 70400 nM. At TBK1 [2] (setting [8]), the “Dmax (maximal degradation observed)” value was 71% and the DC50 was found to be 864 nM. Further, the “Dmax (maximal degradation observed)” value on TBK1 [2] (TBK1 degradation, Panc02.13 cells, 16 h, mean of ≥ 2 determinations, listed as PROTAC 31) was > 70%.
In assay [1], `Cc1ncsc1-c1ccc(CNC(=O)[C@@H]2C[C@@H](O)CN2C(=O)CNC(=O)COCCCOCCCCOCCCOc2ccc(Nc3ncc(Br)c(NCCCN(C)C(=O)C4CCC4)n3)cc2)cc1` [Compound 29] showed an IC50 of 106000 nM. For the same molecule, at TBK1 [2] (setting [8]), the “Dmax (maximal degradation observed)” value turned out to be 0% and the DC50 is > 1000 nM.
On to `Cc1ncsc1-c1ccc(CNC(=O)[C@@H]2C[C@@H](O)CN2C(=O)[C@@H](NC(=O)COCCCOCCCCOCCCOc2ccc(Nc3ncc(C4CCC4)c(NCCCN(C)C(=O)C4CCC4)n3)cc2)C(C)(C)C)cc1` [Compound 22], for which the Kd on TBK1 [3] was 1040 ± 165 nM; at TBK1 [3] (rounded value), 1000 nM. Also, the “Dmax (maximal degradation observed)” value on TBK1 [2] (setting [8]) is 70%. The DC50 on TBK1 [2] (setting [8]) came out at 544 nM.
For `Cc1ncsc1-c1ccc(CNC(=O)[C@@H]2C[C@@H](O)CN2C(=O)[C@@H](NC(=O)COCCCOCCCCOCCCOc2ccc(Nc3ncc(Br)c(NCCCN(C)C(=O)C4CCC4)n3)cc2)C(C)(C)C)cc1` [Compound 11, (2S,4R)-1-((S)-18-(4-((5-Bromo-4-((3-(N-methylcyclobutanecarboxamido)-propyl)amino)pyrimidin-2-yl)amino)phenoxy)-2-(tert-butyl)-4-oxo-6,10,15-trioxa-3-azaoctadecan-1-oyl)-4-hydroxy-N-(4-(4-methylthiazol-5-yl)benzyl)pyrrolidine-2-carboxamide], on IKKε [4], the IKKε degradation entry was “negligible degradation”. The “degradation selectivity TBK1 over IKKε” value on IKKε [4] was “selectively degrades TBK1 over IKKε”. In assay [1], the half-inhibitory concentration (IC50) worked out at 800 nM. In addition, the “TBK1 degradation in KRAS mutant and wild type cells” value on TBK1 [5] is recorded as “near complete degradation of TBK1”. Further, the “intracellular TBK1 binding indicated by inhibition of pIRF3” value in the assay on pIRF3 is reported as “competent intracellular TBK1 binding”. Further, the Kd at TBK1 [3] is 4.6 ± 1.1 nM; at IKKε [7], 70 nM. Further, in assay [6], the “effect on proliferation of KRAS mutant versus wild type cells” value is reported as “no differential effect on the proliferation”. For the same molecule, at TBK1 [2] (setting [8]), the DC50 is 12 nM. For the same molecule, the Dmax at TBK1 [2] (TBK1 degradation, Panc02.13 cells, 16 h, mean of ≥ 2 determinations, read-out: Dmax (maximal degradation observed)) came out at 96%. At TBK1 [2] (excess VHL ligand 2 as competitor), the “TBK1 degradation with excess VHL ligand 2 added” value was “abrogated TBK1's degradation”. The “TBK1 degradation (in words)” value on TBK1 [2] (listed as PROTAC 11) is “Maximal efficacy; also recorded: effects degradation of TBK1”. Besides, the “TBK1 degradation after pre-treatment with proteasome inhibitor carfilzomib” value on TBK1 [2] (pre-treatment with carfilzomib, listed as PROTAC 11) is recorded as “markedly reduced the extent of TBK1 degradation; also recorded: abrogated”.
`CCC[C@H](NC(=O)COCCCOCCCCOCCCOc1ccc(Nc2ncc(Br)c(NCCCN(C)C(=O)C3CCC3)n2)cc1)C(=O)N1C[C@H](O)C[C@H]1C(=O)NCc1ccc(-c2scnc2C)cc1` [Compound 32]: the IC50 in assay [1] turned out to be 6200 nM. In addition, at TBK1 [2] (setting [8]), the “Dmax (maximal degradation observed)” value worked out at 75% and the DC50 is 288 nM.
In turn, `Cc1ncsc1-c1ccc(CNC(=O)[C@@H]2C[C@@H](O)CN2C(=O)[C@H](C)NC(=O)COCCCOCCCCOCCCOc2ccc(Nc3ncc(Br)c(NCCCN(C)C(=O)C4CCC4)n3)cc2)cc1` [Compound 30] registered an IC50 in assay [1] of 23600 nM. At TBK1 [2] (setting [8]), the “Dmax (maximal degradation observed)” value stood at 34% and the DC50 was > 1000 nM.
Molecule `Cc1ncsc1-c1ccc(CNC(=O)[C@@H]2C[C@@H](O)CN2C(=O)[C@@H](NC(=O)COCCCOCCCCOCCCOc2ccc(Nc3ncc(Br)c(NCCCN(C)C(=O)C4CCC4)n3)cc2)C(C)C)cc1` [Compound 33] returned an IC50 in assay [1] of 1450 nM. Further, at TBK1 [2] (setting [8]), the “Dmax (maximal degradation observed)” value is reported as 88% and the DC50 is 44 nM.

A word on the IC50: it is the midpoint of a concentration-inhibition curve. By Kd is commonly meant the free concentration of one partner at which half of the binding sites on the other are occupied at equilibrium, for simple one-to-one binding. A high value points to weaker binding. As usually defined, the Dmax is the largest share of the target that was removed.
